The values that follow come from patent US20030100508A1, “Carbohydrate epitope mimic compounds and uses thereof” (priority 1999, published 2003).

Assay [1] deals with embryonic neural cell cultures. The assay can be described thus: Embryonic neural cell cultures treated with L1 and chemotherapeutic agents. In kind it is cell-based. Particulars: with cisplatin and vincristin; experiments not detailed. The source says:
Thus, in view of the recognized and previously described role of HNK-1 expressing cells, natural killer cells, in the surveillance of tumors and virus-infected cells, the carbohydrate epitope mimic peptides can be utilized in enhancing, activating or otherwise modulating the surveillance and clearance of tumors and virus-infected cells. The carbohydrate epitope mimic peptides of the present invention may also have use in the protection of cells, particularly neural cells from chemotherapeutic agents. In experiments not specifically detailed in the Examples herein, the inventors treated embryonic neural cell cultures with a combination of the neural cell adhesion molecule L1 and chemotherapeutic agents, including cisplatin and vincristin. The cell cytopathic effects of the chemotherapeutic agents were reduced in te presence of L1. L1expresses the HNK-1 epitope and a good portion of L1 homophilic binding is HNK-1 mediated. Thus, it is contemplated that the L2/HNK-1 epitope mimic peptide of the present invention can be utilized in the protection of cells, particularly neural cells from chemotherapeutic agents. Untoward cellular cytotoxic effects and problematic symptoms associated therewith are a recognized and limiting side effect of chemotherapy, inherently limiting the dose of the agents which can be administered.

Another assay has as its system HNK-1 antibody. The assay can be described thus: Phage ELISA: binding of phage clones to coated HNK-1 antibody. The note with it: 100 μl culture supernatant; antibody 1 μg/ml coating. Also noted: species or system mouse. On the procedure:
(§1) Comparative binding of the HNK-1 selected phage/positive clones versus the L2-412 selected 15-15 phage to bound L2-412 antibody, IgG, HNK-1, and IgM is shown FIG. 14. Supernatant (100 μl) from an overnight culture of bacteria secreting phade were incubated with coated antibodies (100 μl of 1 μg/ml useded for coating) and detected with HRP-coupled anti-phage antibody.
Individual colonies resistant to tetracycline and kanamycin were grown in LB containing 20 μg/mil tetracycline in 96-wells plates (Nunc) overnight at 37° C. (300 μl/well), then centrifuged 10 minutes at 3000 rpm in Jouan centrifuge and the supernatant (100 μl) was incubated for 2 hr in another 96-well plate previously coated with mAbL2-412 (100 μl, μg/l ml overnight at 4° C.) and blocked by incubation for 2 hours with PBS-0.5% (w/v) BSA. After washing 5 times, the binding of the phages was detected by incubation with HRP-conjugated anti-M13 antibody (Pharmacia, Biotech.) for 1 hour at a dilution of 1:2000. The peroxidase reaction was started by the addition of 100 μl developer containing 0.01% hydrogen peroxide and 0.1% (w/v) 2,2′-azino-bis(3-ethylbenzthiazoline-6-sulfonic acid)-diammonium salt (ABTS, Boehringer Mannheim) in HRP buffer (0.1M sodium acetate, 0.05M NaH2PO4, pH adjusted to 4.2 with acetic acid). The absorbance of the colored reaction product was determined at 405 nm in a Multiscan TitertekPlus (Flow, Switzerland). […] Two individual colonies were picked and re-assayed for positivity towards mAb L2-412. Positive single colonies were stored in 40% glycerol at −80° C.
For orientation: In an ELISA, binding on a coated surface is turned into a signal by an enzyme label.

A further assay concerns the target T1, laminin (Mus musculus, UniProt P19137).
T1 construct: purchased Gibco/BRL
The assay can be described thus: Binding of phage to immobilized laminin. Particulars: laminin 10 μg/ml coating; anti-M13 HRP detection. On the procedure:
FIG. 5 depicts binding of phage 15-15 and control phage UBR2 to immobilized laminin (100 μl of 10 μg/ml used for coating). Bound phage were detected by HRP-conjugated anti-M13 antibody. The results are presented as OD405 vs. relative concentration of the phage preparation (a relative concentration of 100 corresponds to […] phage).

In assay [2] the test system is L2-412 antibody. Nature of the assay: Phage ELISA: binding of phage clones to coated L2-412 antibody. Particulars: 100 μl culture supernatant; antibody 1 μg/ml coating. On the set-up: species or system rat. How it is done: as §1
Individual colonies resistant to tetracycline and kanamycin were grown in LB containing 20 μg/mil tetracycline in 96-wells plates (Nunc) overnight at 37° C. (300 μl/well), then centrifuged 10 minutes at 3000 rpm in Jouan centrifuge and the supernatant (100 μl) was incubated for 2 hr in another 96-well plate previously coated with mAbL2-412 (100 μl, μg/l ml overnight at 4° C.) and blocked by incubation for 2 hours with PBS-0.5% (w/v) BSA. After washing 5 times, the binding of the phages was detected by incubation with HRP-conjugated anti-M13 antibody (Pharmacia, Biotech.) for 1 hour at a dilution of 1:2000. […] The absorbance of the colored reaction product was determined at 405 nm in a Multiscan TitertekPlus (Flow, Switzerland). […]

The subject of assay [3] is Ox42 (MAC 1), TNF and GFAP expression. Nature of the assay: gp120-mediated inflammation and neuropathy, sciatic nerve Oxycel delivery, spinal cord immunohistochemistry. In kind it is in vivo, rat. The source says: Herzberg et al coated the sciatic nerve of rats with oxidized cellulose saturated with gp120 or BSA as control. Persistant hyperalgesia and allodynia were observed throughout a one month testing period in rats treated with gp120. […] This system was utilized to assess the affect of the 8-mer peptide on gp120-mediated inflammation and neuropathy, using Ox42 (MAC 1), TNF and GFAP expression as immunohistochemical markers.
Ox42 (also called MACl) is a general marker for immune/inflammatory activation of the central nervous system (expressed by microglia—when those proliferate and/or extend their processes). If Ox42 marker is present two weeks, and particularly four weeks, after initial neural injury, this indicates a chronic problem. An ongoing inflammatory process in the CNS is correlative of neuropathy. TNF is a cytokine indicating an inflammatory process, and in this case neuronal degeneration. It's expression increases in the CSF of pateints with HIV related neuropathy and is thought to play a role in the degenerative process in these patients (see “role of immune activation and cytokine expression in HIV-1 associated neurologic disease” bay Masaru Yoshioka Walter G Bradley, Paul Shapshak, Isao Nagano, Rene V. Stewart, Ke-Qin Xin, Ashok Srivastava, and Shozo Nakamura in Advance in Neuroimmunology) Vol.5 pp 335-358, 1995. GFAP is a marker for a general activation of astrocytes in the spinal cord and is expressed following damage to the CNS.
Male Sprague Dawley rats weighing 200-225 g were used.
The left sciatic nerve was isolated by blunt dissection, and wrapped with oxidized cellulose (Oxycel, Becton Dickinson) saturated with 250 ul sterile saline containing 400 ng of recombinant gp120 protein alone, or in the presence of 43 ng of the 8-mer L2/HNK-1 mimic peptide (corresponding to a 10×excess […] on a mole-per-mole basis), utilizing the Oxycel delivery method of Eliav et al (Eliav et al (1999) Pain 83(2): 169-82. Eight animals were treated with gp120 alone and eight animals were treated with gp120 and 43 ng peptidomimetic compound.
Animals were euthanized (overdose of xylazine/ketamine) at two and four weeks following surgery and perfused transcardially with ice cold saline followed by 4% paraformaldehyde.
Spinal cords were harvested and cryoprotected overnight at 30% sucrose solution 10 Sections of 40 um thickness from the lumbar enlargement from each animal were thaw mounted onto gelatized slides and stained immunohistochemically for Ox-42 (MACl), TNF and GFAP.

In assay [4] the test system is oligodendrocytes in mixed cerebellar cultures. Nature of the assay: Oligodendrocyte cultures treated with HIV gp120 and HNK-1 epitope mimic peptide, RIP immunostaining. In kind it is cell-based, rat. How it is done:
For these experiments, mixed neural cultures were isolated from rat cerebellum. Briefly, tissue was harvested from postnatal day five rat pups, dissociated and plated on poly-lysine coated 24 well cluster plates in Neural basal medium plus B27 supplement, 1% FBS and penicillin and streptomycin. HNK-1 epitope mimic peptide 8 mer (FLHTRLFV) (SEQ ID NO:8) (1 mM, 100 nM or 10 nM) was added to wells at the time of plating. Three days later, 1 nM gp120 was preincubated with 1 mM, 100 nM or 10 nM HNK-1 peptidomimetic for 1 hour at 37° C. After one hour, gp120 or gp120 plus HNK-1 peptidomimetic was added to mixed cerebellar cultures in sets of 6 replicates. Four days later, cultures were fixed and immunostained with the oligodendrocyte specific antibody marker, RIP. Data was analyzed by counting the number of RIP positive cells in twenty 20×-microscope fields. In addition, the number of RIP positive cells, mature oligodendrocytes with extensive intact membrane sheaths were counted. The cells are depicted in FIG. 20.

Assay [5] has the same test system. Described as above. In kind it is cell-based, rat. The source holds these as a separate data set.
In assay [6] the test system is L2-412 antibody. The assay can be described thus: Competition ELISA: binding of mAb L2-412 to immobilized L2/HNK-1 glycolipids. On the set-up: species or system rat. On the procedure: FIG. 2A depicts competition of the L2-412 antibody to immobilized L2/HNK-1 glycolipids by various inhibitors: positive phage (denoted phage 15-15), negative phage (denoted neg. control phage), free peptide (denoted peptide 15-15) and SO3-sugar. L2-412 was preincubated with a stepwise 2-fold dilution series of the free peptide (starting concentration 2.2 mM), SO3-sugar (starting concentration 5 mM), positive phage and negative phage (starting concentration 10^12TUs/ml), and added to the coated glycolipid. After incubation and washing, the bound antibody was detected with HRP anti-rat antibody.
FIG. 2B depicts the percentage inhibition of L2-412 antibody to immobilized L2/HNK-1 glycolipids by various inhibitors. The percentage is calculated for the point in FIG. 2A with the highest concentration of inhibitor. […]
Microtiter plates (Nunc) were coated with the L2/HNK-1 glycolipids (50 μl, 1 μg/ml, dissolved in EtOH) and allowed to dry overnight. While blocking the wells for 2 hours with 0.5% (w/v) fatty-acid-free BSA in PBS, a limiting concentration of ^L2-412, previously determined, was pre-incubated with successive 2-fold dilutions of the inhibitor, starting at a concentration of 2.2 mM for the free peptide, 5 mM for the SO3 sugar and 10^12 positive and negative phages (the negative phages were cloned from the unbound fraction of the first round of screening). […]

Assay [7] concerns the target monoclonal antibody L2-412. The assay can be described thus: competition ELISA: L2-412 preincubated with inhibitor (2-fold dilutions from 2.2 mM), then binding to immobilized L2/HNK-1 glycolipid.
[8] abbreviates: gp120 400 ng + 43 ng 8-mer peptide on sciatic nerve, lumbar spinal cord.
The mark [9] stands for this setting: gp120 (1 nM) + 10 nM peptide, preincubated.
The mark [10] stands for this setting: gp120 (1 nM) + 100 nM peptide, preincubated.
Setting [11] is: gp120 (1 nM) + 1 uM peptide, preincubated.

As for “L1: neural cell adhesion molecule L1 [Peptide L1]”, the “cell cytopathic effects of chemotherapeutic agents” value in assay [1] was “reduced”.
On to “F L H T R L F V S D W Y H T P [phage 15-15]”, for which the “binding of phage to coated HNK-1 antibody” value with HNK-1 antibody was “does not bind HNK-1 antibody to a significant extent”. At laminin, the “binding of phage to immobilized laminin” value is “bind to laminin in a concentration dependent manner”.
In the case of “S L A P Y S L R I F V L F G G A (SLAPYSLRIFVLFGGA) [Peptide 15H233]”, in the assay on HNK-1 antibody, the “binding of phage to coated HNK-1 antibody” value was “bind L2-412 and HNK-1, nearly to the same extent”. For the same molecule, the “binding of phage to coated L2-412 antibody” value in the assay with L2-412 antibody [2] was “bind L2-412 and HNK-1, nearly to the same extent”.
For the molecule “F L H T R L F V (FLHTRLFV; m13 library) [Consensus peptide]”, the GFAP immunoreactive area in [3] (setting [8]) worked out at 8745 pixels. The Ox42 immunoreactive area in [3] (setting [8]) was 1557 pixels. In [3] (setting [8]), the TNF immunoreactive area was 1478 pixels. Further, the “effect on gp120-induced immunoreactivity” value in assay [3] (gp120 + peptide versus Oxycel alone) was “brings those values back to the same level as with Oxycel alone”. In addition, the “cellular morphology of spinal cord sections, light microscopy” value in assay [3] (gp120 in combination with the HNK-1 peptide) is given as “This cellular morphology was not observed”. For the same molecule, the “fluorescence microscopy of RIP positive oligodendrocytes” value is reported as “Numerous mature RIP positive oligodendrocytes with extensive membrane sheaths were observed” in [4] (10 nM HNK-1 epitope mimic peptide) and “indistinguishable from mature RIP positive cells observed in cultures treated with the HNK-1 epitope mimic peptide only” in [5] (1 nM gp120 preincubated with 1 uM HNK-1 epitope mimic peptide). Besides, the “# mature RIP + cells/20 fields” value in assay [4] (100 nM peptide) was 16.33 cells/20 fields; in assay [4] (setting [9]), 8.833 cells/20 fields; in assay [4] (setting [10]), 11.17 cells/20 fields; in assay [4] (setting [11]) it was 12.33 cells/20 fields; in assay [5] (1 uM peptide), 13.33 cells/20 fields; in [5] (10 uM peptide), 22.33 cells/20 fields. For the same molecule, the “Total # RIP + cells/20 fields” value in assay [4] (100 nM peptide) is reported as 76.67 cells/20 fields; in assay [4] (setting [10]), 69.83 cells/20 fields; in [5] (1 uM peptide), 62.67 cells/20 fields; in assay [5] (10 uM peptide), 75.83 cells/20 fields; in [5] (setting [9]) it was 73.83 cells/20 fields; in [5] (setting [11]), 76.83 cells/20 fields. In addition, the “effect on mature oligodendrocytes and gp120-associated myelin destruction” value in assay [4] (summary of Table 6) was “increases the number of mature oligodendrocytes and blocks myelin destruction associated with gp 120 treatment”.
Regarding “S G R G F C C W S N D S A L S [negative phage, reference compound]”, the “inhibitory effect on L2-412 binding to immobilized L2-glycolipids” value with L2-412 antibody [6] (phage starting at 10^12) was “did not show this inhibitory effect”.
As to “T R L F R V P V F R L G D F W (TRLFRVPVFRLGDFW) [Peptide 15H92]”, the “binding of phage to coated HNK-1 antibody” value in the assay on HNK-1 antibody was “bind L2-412 and HNK-1, nearly to the same extent”. The “binding of phage to coated L2-412 antibody” value with L2-412 antibody [2] is “bind L2-412 and HNK-1, nearly to the same extent”.
As for “F L H T R L F V S D W Y H T (FLHTRLFVSDWYHT; m13 library) [Peptide 15-15]”, the “inhibition of L2-412 binding to immobilized L2/HNK-1 glycolipids” value with L2-412 antibody [6] (highest inhibitor concentration (free peptide 2.2 mM, SO3-sugar 5 mM, phage 10^12 TUs/ml), no inhibitor = 0%) is recorded as 30-35%.
On to FLHTRLFVSDWYHT [peptide 15-15 (free synthetic peptide …)], for which the percent inhibition in assay [7] fell in the range of 30 to 35%.
